Measured values taken from publication PMC11312813, “An Optimized Peptide Antagonist of CXCR4 Limits Survival of BCR–ABL1-Transformed Cells in Philadelphia-Chromosome-Positive B-Cell Acute Lymphoblastic Leukemia” (International Journal of Molecular Sciences, 2024).
Counter-ions that a name gives are not always drawn.

Key:
CXCR4 [1] = assay: Anti-CXCR4 antibody (clone L276F12) competition assay in BCR–ABL1-transformed mouse B cells; assay type: binding; conditions: 2 h at 4 °C, FACS, n = 3; for Anti-CXCR4 antibody binding to CXCR4: serially diluted 10 µM to 1 nM
Description: An anti-CXCR4 competition assay was conducted as previously described. […] Afterward, the cells were washed to remove unbound inhibitors and antibody, and measured via FACS for the fluorescence signal of the bound antibody. The fluorescence signal corresponding to only antibody (no inhibitor) was considered to be 100% antibody binding.

SupB15 cells = assay: Flow cytometric cell survival analysis, SupB15; assay type: cell-based, human; conditions: for SupB15 cell survival vs DMSO: 10 µM, 24–96 h, n = 3; for Dead gate (viability dye) / Live gate (viability dye): JM#170 10 µM, representative histogram of n = 3
Description: Cells treated with either solvent control DMSO or different concentrations of inhibitors for different time points were collected and washed with ice-cold PBS. […] After washing, labeled cells were resuspended in 100 μL of PBS and acquired using LSR-Fortessa (BD Bioscience, Heidelberg, Germany). FACS data were analyzed with FlowJo software version 10.0.

[2] = system: BCR–ABL1-transformed mouse B cells; assay: Cell proliferation assay (cell trace dye dilution); assay type: cell-based; conditions: 10 µM, 48 and 72 h; n = 3
Description: BCR–ABL1 cells were collected at 0.5 × 10^5 cells/well of a 96-well plate and labeled with cell trace far red cell proliferation dye (#C34564, Invitrogen, Dreieich, Germany), according to the manufacturer’s instructions. Labeled cells were plated in 100 μL of complete media and were mixed with equal volume of 2X DMSO or inhibitor-containing media. A small part of the labeled cells was measured in FACS to determine the fluorescence signal on day 0. After specific time periods (48 and 72 h), cells were collected, washed with FACS buffer, and analyzed using LSR-Fortessa (BD Bioscience).

caspase 8 = assay: Caspase-Glo 8 activation assay in BCR–ABL1 cells; assay type: cell-based, mouse; conditions: 10 µM; n = 3
Description: BCR–ABL1 cells were plated at 0.5 × 10^5 cells/well of a 96-well plate in 100 μL of complete media and treated with DMSO or various inhibitors. At specific time points (24, 48 and 72 h), activation of caspases was measured with a Caspase-Glo® 3/7 Assay (#G8090) and Caspase-Glo® 8 Assay (#G8200, Promega, Madison, WI, USA) following the manufacturer’s instructions.

[3] = system: ERK1/2 phosphorylation downstream of CXCR4; assay: Western blot, ERK1/2 T202/Y204 phosphorylation in BCR–ABL1 cells; assay type: cell-based; conditions: 10 µM, 100 ng/mL mouse CXCL12, 5 min; n = 3
Description: BCR–ABL1 cells were collected as 5 × 10^6 cells/500 μL complete media and treated either with DMSO or different inhibitors in the absence and presence of 100 ng/mL mouse CXCL12 for 5, 15, and 30 min at 37 °C. Cells were then immediately transferred onto ice to stop the reaction and washed with ice-cold PBS. Cell extract was prepared by resuspending the cell pellet in 100 μL of radio-immunoprecipitation assay (RIPA) buffer supplemented with 1X protease inhibitor cocktail (#78429, Thermo Fisher), 1 mM sodium orthovanadate (Sigma-Aldrich), and 10 mM beta-glycerophosphate (Sigma-Aldrich). For each treatment, 15 μL of cell extract was mixed with 5 μL of 4X Laemmli buffer (reducing), boiled at 95 °C for 10 min, and run on 10% SDS-PAGE. Gels were wet-transferred to PVDF membranes (Millipore, Burlington, MA, USA) and stained with 0.1% ponceau-S solution to check for efficient blotting. The membranes were blocked with 3% BSA solution and incubated with primary antibodies at 4 °C overnight. The next day, primary antibodies were washed, and membranes were probed with horseradish peroxidase (HRP)-conjugated secondary antibodies at RT for 2 h. After washing, the blots were developed using Immobilon ECL Ultra Western HRP Substrate (#WBULS0500, Millipore), and images were acquired with a Fusion SL gel imaging system (Vilber Lourmat, Eberhardzell, Germany). […]

CXCR4 [4] = assay: CXCL12-driven calcium flux in SupB15 cells; assay type: cell-based; conditions: 1 µM, 10 min pre-treatment, 100 ng/mL human CXCL12; n = 3
Description: Ca^2+ signaling was analyzed as described previously. Briefly, SupB15 and 697 cells were collected at 1 × 10^6 cells/treatment and loaded with calcium-sensitive dye Indo-1 AM (#I1223, Invitrogen) and 0.5 mg/mL of pluronic F-127 (#P3000MP, Invitrogen) in their respective media supplemented with 1% FBS at 37 °C for 45 min. Cells were then washed and treated with the inhibitors for 10 min at 37 °C. Baseline signal for calcium was measured for 30 s via flow cytometry, followed by stimulation with 100 ng/mL human CXCL12. The area under the curve (AUC) of each calcium flux plot was determined using FlowJo. The AUC of the water control (solvent for CXCL12) was subtracted from each treatment to obtain the correct estimation of the calcium signal upon CXCL12 stimulation.

JNK1/2 phosphorylation = assay: Western blot, basal JNK1/2 phosphorylation in BCR–ABL1 cells; assay type: cell-based, mouse; conditions: 10 µM, no CXCL12, 5 min; n = 3
Description: BCR–ABL1 cells were collected as 5 × 10^6 cells/500 μL complete media and treated either with DMSO or different inhibitors in the absence and presence of 100 ng/mL mouse CXCL12 for 5, 15, and 30 min at 37 °C. Cells were then immediately transferred onto ice to stop the reaction and washed with ice-cold PBS. […] For each treatment, 15 μL of cell extract was mixed with 5 μL of 4X Laemmli buffer (reducing), boiled at 95 °C for 10 min, and run on 10% SDS-PAGE. Gels were wet-transferred to PVDF membranes (Millipore, Burlington, MA, USA) and stained with 0.1% ponceau-S solution to check for efficient blotting. The membranes were blocked with 3% BSA solution and incubated with primary antibodies at 4 °C overnight. The next day, primary antibodies were washed, and membranes were probed with horseradish peroxidase (HRP)-conjugated secondary antibodies at RT for 2 h. After washing, the blots were developed using Immobilon ECL Ultra Western HRP Substrate (#WBULS0500, Millipore), and images were acquired with a Fusion SL gel imaging system (Vilber Lourmat, Eberhardzell, Germany).

697 cells = assay: Real-time cell growth by IncuCyte, 697; assay type: cell-based, human; conditions: 10 µM, 96 h; n = 3
Description: (§1) The cells were plated in 100 μL complete medium.

[5] = system: WT mouse BM-derived B cells; assay: Real-time cell growth, normal WT mouse BM-derived B cells; assay type: cell-based; conditions: 10 µM JM#170, 10 µM AMD3100, 1 µM Imatinib; 96 h; n = 2
Description: as §1

| Compound | Concentration effective in inhibiting antibody binding to CXCR4 (CXCR4 [1]) | Anti-CXCR4 antibody binding to CXCR4 (CXCR4 [1]) | SupB15 cell survival vs DMSO (SupB15 cells) | Proliferation of BCR–ABL1 cells (dye dilution) vs DMSO [2] | Caspase 8 activation vs DMSO (caspase 8) | CXCL12-induced ERK1/2 T202/Y204 phosphorylation [3] | CXCL12-induced calcium flux, SupB15 (CXCR4 [4]) | Basal JNK phosphorylation vs DMSO (JNK1/2 phosphorylation) | Dead gate (viability dye) (SupB15 cells; 24 h) | Live gate (viability dye) (SupB15 cells; 24 h) | Dead gate (viability dye) (SupB15 cells; 72 h) | Live gate (viability dye) (SupB15 cells; 72 h) | Dead gate (viability dye) (SupB15 cells; 96 h) | Live gate (viability dye) (SupB15 cells; 96 h) | 697 cell growth vs DMSO (697 cells) | Growth of normal WT mouse BM-derived B cells [5] |
| --- | --- | --- | --- | --- | --- | --- | --- | --- | --- | --- | --- | --- | --- | --- | --- | --- |
| c1cc(CN2CCCNCCNCCCNCC2)ccc1CN1CCCNCCNCCCNCC1 [AMD3100, AMD3100 octahydrochloride hydrate, reference compound] | ~ 1 μM | significantly inhibited the antibody binding | no effect on SupB15 cell survival | significantly reduced the proliferation | neither JM#170 nor AMD3100 induced caspase 8 | this elevation was blocked | completely blocked the calcium flux | such upregulation was not observed | – | – | – | – | – | – | – | – |
| ILRWSRK * (Pal)-NH2 [JM#170, lipid-conjugated truncated version of EPI-X4, CXCR4 antagonist] | ~ 10 nM | significantly inhibited the antibody binding | significantly reduced SupB15 cell survival | no effect on proliferation | neither JM#170 nor AMD3100 induced caspase 8 | this elevation was blocked | completely blocked the calcium flux | transiently upregulated basal JNK phosphorylation | 19.0 | 81.0 | 33.3 | 66.7 | 41.7 | 58.3 | no effect on the 697 cells | remained inactive against the WT B cells |
